Assay results published in article PMC4920590, “GPR142 Controls Tryptophan-Induced Insulin and Incretin Hormone Secretion to Improve Glucose Metabolism” (PLoS ONE, 2016).
Read-outs that look alike come from different tables or passages of the source. One block for each molecule: values may come before it.

Key:
human GPR142 = target: T1, human GPR142 (Homo sapiens, UniProt Q7Z601); test: IP-1 accumulation assay in HEK293 cells stably expressing human GPR142; type: cell-based; conditions: for EC50: IP-1 accumulation, 1 hour, read-out: HEK293-hGPR142 EC50; for HEK293-hGPR142 EC50 (Emax): activity call, tested 170 nM to 30 mM
T1 construct: expressed in transfected cells
T1 sequence (Q7Z601 1-374 isoform Q7Z601-2): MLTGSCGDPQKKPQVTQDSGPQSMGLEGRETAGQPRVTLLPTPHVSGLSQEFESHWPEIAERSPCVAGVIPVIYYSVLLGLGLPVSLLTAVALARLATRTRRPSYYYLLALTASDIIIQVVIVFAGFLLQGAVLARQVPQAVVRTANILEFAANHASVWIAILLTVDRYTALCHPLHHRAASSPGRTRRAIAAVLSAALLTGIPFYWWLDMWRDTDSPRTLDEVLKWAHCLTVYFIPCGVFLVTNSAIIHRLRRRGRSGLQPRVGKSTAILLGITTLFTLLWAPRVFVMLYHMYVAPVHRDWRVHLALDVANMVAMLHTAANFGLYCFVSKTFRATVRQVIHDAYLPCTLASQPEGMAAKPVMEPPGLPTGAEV
Procedure: (§1) HEK293 cells obtained from ATCC were used to generate cell lines stably expressing human GPR142 or mouse Gpr142 by transfecting cells with pcDNA3.1 expression vectors containing each cDNA. Cells expanded from single clones were maintained in DMEM containing 10% fetal bovine serum (FBS) and 800 μg/ml G418. Untransfected control HEK293 cells were maintained in DMEM containing 10% FBS. Cells were plated in 384 well plates at 5000 cells per well and allowed 18 hours for attachment. After addition of compounds, cells were incubated for 1 hour. IP-1 measurements were performed using an HTRF assay kit (Cisbio) according to manufacturer’s protocol using assay buffer containing 1 × HBSS (Hank’s Balanced Salt Solution, +Ca, +Mg), 0.1% bovine serum albumin (BSA), 50 mM LiCl and 20 mM HEPES (4-(2-hydroxyethyl)-1-piperazineethanesulfonic acid), pH 7.2. The reaction was stopped by addition of IP1-d2 followed by cryptate solution and the plates were incubated at 25°C for 1 hour. Fluorescence was read in an Envision instrument at 665 nm and 620 nm. The ratio of 665 nm/620 nm was calculated and converted to IP-1 levels using a standard curve method. The data was fit to 4-parameter fit logistics to determine EC50 values.

mouse GPR142 = target: T2, mouse GPR142 (Mus musculus, UniProt Q7TQN9); test: IP-1 accumulation assay in HEK293 cells stably expressing mouse Gpr142; type: cell-based
T2 sequence (Q7TQN9 67-365 limits assumed): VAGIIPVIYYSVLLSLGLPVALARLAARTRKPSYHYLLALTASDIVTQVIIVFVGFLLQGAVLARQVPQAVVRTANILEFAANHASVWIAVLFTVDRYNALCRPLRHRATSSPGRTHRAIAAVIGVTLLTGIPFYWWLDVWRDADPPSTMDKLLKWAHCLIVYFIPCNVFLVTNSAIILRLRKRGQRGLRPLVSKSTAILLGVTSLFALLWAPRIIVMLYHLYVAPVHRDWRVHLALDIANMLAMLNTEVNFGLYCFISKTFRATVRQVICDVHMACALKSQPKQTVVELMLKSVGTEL
Procedure: as §1

[1] = Plasma insulin and incretin hormone levels after oral dosing in mice; type: in vivo, mouse
Procedure: (§2) Mice were fasted overnight and allowed free access to water. […] Tail blood glucose levels were measured at indicated time points using handheld glucometers. For incretin hormone measurements, blood was collected via cardiac bleeds into EDTA-tubes containing DPP-4 inhibitor (Millipore) and protease inhibitor cocktail (Thermo Fisher). For insulin measurements during GTT, blood was collected from the tail.
Immunoassays were used to measure total GIP (Millipore, ELISA), total GLP-1, and insulin (Meso Scale Discovery). Enzymatic assays were used to measure TG, beta-hydroxybutarate (Sigma-Aldrich), and total cholesterol (Thermo Fisher). HDL-cholesterol was determined in the supernatant after removal of LDL/vLDL-cholesterol by a precipitation reagent (Sigma-Aldrich); non-HDL-cholesterol was determined by subtracting HDL from total cholesterol. Free fatty acids were measured by GC-MS.

[2] = Glucose tolerance test (IPGTT/OGTT) after oral dosing in mice; type: in vivo, mouse; conditions: p.o. 30 minutes before glucose 2 g/kg; OGTT 10 mg/kg diet-induced obese C57 mice, IPGTT 30 mg/kg
Procedure: as §2

human pancreatic islets = test: Insulin secretion in isolated human pancreatic islets; type: cell-based; conditions: 11 mM glucose, 1 hour, non-diabetic donor
Source text: Human pancreatic islets were purchased from Prodo Labs at the Scharp-Lacy Research Institute (Irvine, CA, www.prodolabs.com) through the Integrated Islet Distribution Program in accordance with internal review board (IRB) ethical guidelines for use of human tissue. Islets were isolated at Prodo Labs from human pancreata from listed cadaver organ donors that were refused for primary human pancreas transplantation or isolated islets transplantion into listed diabetic recipients. […] The next day day islets were incubated for 30 min in EBSS buffer containing 0.1% BSA and 3 mM glucose. […] Islets were cultured for 60 min at 37°C. The incubation was stopped by chilling the samples on ice. The culture media was removed and stored at -20°C until its insulin concentration was measured. Insulin was measured using a custom built immunoassay (Meso Scale Discovery).

murine pancreatic islets = test: Insulin secretion in isolated murine pancreatic islets (WT and Gpr142 KO); type: cell-based, mouse; conditions: 11.1 mM glucose, 1 hour
Procedure: Secretion was stopped by refrigerating the plates at 4°C for 3 minutes. Supernatant was removed from the wells and assayed for insulin levels using the MA6000 Mouse/Rat Insulin Kit (Meso Scale Discovery).

[3] = 30 mg/kg p.o., normal C57 mice, fasted state and after oral glucose challenge
[4] = HEK293, relative efficacy normalized to maximal response of L-Tryptophan (100%), read-out: HEK293-hGPR142 Emax

Compound: CCCc1c(C(=O)NCc2cncn2C)cnn1-c1ncc(C)c(-c2cccs2)n1 [Compound A, N-[(3-methylimidazol-4-yl)methyl]-1-[5-methyl-4-(2-thienyl)pyrimidin-2-yl]-5-propyl-pyrazole-4-carboxamide]
Emax (mouse GPR142; HEK293, relative efficacy normalized to maximal response of L-Tryptophan (100%), read-out: HEK293-mGPR142 Emax): 90%
EC50 (mouse GPR142; IP-1 accumulation, 1 hour, 0.17 nM to 30 μM, read-out: HEK293-mGPR142 EC50): 0.88 nM
plasma insulin during glucose tolerance test ([1]; 10 mg/kg p.o., diet-induced obese C57 mice, 15 minutes after glucose challenge): increase in plasma insulin
meal induced GIP, GLP-1, and insulin levels ([1]; 30 mg/kg p.o. 30 minutes prior to oral mixed meal challenge (Ensure-plus 10 mL/kg), C57 mice): additional stimulatory effects
effects on plasma hormones and glycemia in Gpr142 KO mice ([1]; 30 mg/kg p.o., KO mice): completely absent
plasma GIP level [1, 3]: significantly increased
plasma GLP-1 level [1, 3]: significantly increased
glucose excursion during OGTT and IPGTT [2]: robust suppression of glucose excursion
insulin secretion in human primary islets (human pancreatic islets): stimulated ex vivo insulin secretion
insulin secretion in WT murine islets (murine pancreatic islets): stimulated ex vivo insulin secretion
Emax (human GPR142; [4]): 90%
EC50 (human GPR142; 0.17 nM to 30 μM): 7.1e-06 mM

Compound: NCC(=O)O [Glycine]
HEK293-hGPR142 EC50 (Emax) (human GPR142): Inactive

Compound: C[C@H](N)C(=O)O [L-Alanine]
HEK293-hGPR142 EC50 (Emax) (human GPR142): Inactive

Compound: N=C(N)NCCC[C@H](N)C(=O)O [L-Arginine]
Emax (human GPR142; HEK293, read-out: HEK293-hGPR142 Emax): 23%
EC50 (human GPR142; 170 nM to 30 mM): > 20 mM

Compound: N[C@@H](CC(=O)O)C(=O)O [L-Aspartic Acid]
Emax (human GPR142; [4]): 41%
EC50 (human GPR142; 170 nM to 30 mM): > 20 mM

Compound: N[C@@H](CCC(=O)O)C(=O)O [L-Glutamic Acid]
HEK293-hGPR142 EC50 (Emax) (human GPR142): Inactive

Compound: N[C@@H](Cc1c[nH]cn1)C(=O)O [L-Histidine]
HEK293-hGPR142 EC50 (Emax) (human GPR142): Inactive

Compound: CC[C@H](C)[C@H](N)C(=O)O [L-Isoleucine]
HEK293-hGPR142 EC50 (Emax) (human GPR142): Inactive

Continued, values first:

EC50 (human GPR142; 170 nM to 30 mM): 12 mM
HEK293-hGPR142 Emax (human GPR142; relative efficacy normalized to maximal response of L-Tryptophan (100%)): 34%
Compound: N[C@@H](Cc1c[nH]c2ccc(O)cc12)C(=O)O [5-OH L-Tryptophan]

Emax (human GPR142; [4]): 29%
EC50 (human GPR142; 170 nM to 30 mM): 3.5 mM
significant activation of GPR142 signaling at concentrations below 10 mM (human GPR142; Table 1): None
Compound: N[C@H](Cc1c[nH]c2ccccc12)C(=O)O [D-Tryptophan]

HEK293-hGPR142 EC50 (Emax) (human GPR142): Inactive
Compound: NC(=O)C[C@H](N)C(=O)O [L-Asparagine]

HEK293-hGPR142 EC50 (Emax) (human GPR142): Inactive
Compound: N[C@@H](CS)C(=O)O [L-Cysteine]

HEK293-hGPR142 EC50 (Emax) (human GPR142): Inactive
Compound: NC(=O)CC[C@H](N)C(=O)O [L-Glutamine]
